The source of these data is patent publication US9061984B2 (University of Louisville Research Foundation, Inc., priority 2008, dated 2015).

Converted amounts (≈) assume the structure as drawn.

For one data set, the system named is axenic amastigotes of L. amazonensis (strain MHOM/BR/76/LTB-012).
Assay: not given
The following applies: Table 8b.
`CC(C)c1ccc(/C=N\Nc2ncnc3sc4c(c23)CCCC4)cc1` [II-07]: the “Selectivity Index” value stood at 2.3.

Turning to `CC(C)(C)c1ccc(/C=N\Nc2ncnc3sc4c(c23)CCCC4)cc1` [II-08], the “Selectivity Index” value is 3.8.

As to `C(=N/Nc1ncnc2sc3c(c12)CCCC3)/c1ccncc1` [II-20], the “Selectivity Index” value amounted to 0.7.

For another data set, the system named is M. tuberculosis H37Rv. Briefly: Conventional aerobic (MABA) culture assay, luminescence MIC. Type of data set: cell-based, Mycobacterium tuberculosis. Particulars: Mycobacterium tuberculosis, 168 h; aerobic, 7 days, H37Rv.
`CC(C)c1ccc(/C=N\Nc2ncnc3sc4c(c23)CCCC4)cc1` [II-07] had an MIC of more than 100 µg/mL.

`CC(C)(C)c1ccc(/C=N\Nc2ncnc3sc4c(c23)CCCC4)cc1` [II-08] showed an MIC of more than 100 µg/mL.

As for `C(=N/Nc1ncnc2sc3c(c12)CCCC3)/c1ccncc1` [II-20], the MIC is more than 100 µg/mL.

The test system of a further data set is VERO cells. Briefly: Cell growth inhibition bioassay (sulforhodamine B). It is filed as cell-based, African Green Monkey. The following applies: Chlorocebus sabaeus, Vero; 48 h, SRB; read-out: GI50 in indicated cell line: VERO. The protocol: (§1) The cytotoxicity of compounds was assayed as follows. […] Appropriate solvent controls were tested for comparison. The percent inhibition of cell growth relative to the control was evaluated colorimetrically using a sulforhodamine B dye by comparison to the control. The calorimetric procedure followed that published in Skehan et al., J. Nat. Cancer Inst., […], pp. 1107-1112 (1990) and Boyd & Paull, Drug Dev. Res., Vol. 34, pp. 91-109 (1995). […] The cell lines are: 3T3 cells are BALB/3T3 clone A31 embryonic mouse fibroblast cells; H460 cells are human large cell lung cancer cells; DU145 cells are human prostate carcinoma cells; MCF-7 cells are human breast adenocarcinoma cells; M-14 cells are human melanoma cells; HT-29 cells are human colon adenocarcinoma cells; PC3 cells are human prostate adenocarcinoma cells; K562 cells are human chronic myelogenous leukemia cells; and VERO cells are African Green Monkey kidney epithelial cells.
With `CC(C)c1ccc(/C=N\Nc2ncnc3sc4c(c23)CCCC4)cc1` [II-07], the GI50 amounted to 2.1 µg/mL (≈ 5.99 µM).

Consider `CC(C)(C)c1ccc(/C=N\Nc2ncnc3sc4c(c23)CCCC4)cc1` [II-08], for which the GI50 stood at 2.5 µg/mL (≈ 6.86 µM).

For `C(=N/Nc1ncnc2sc3c(c12)CCCC3)/c1ccncc1` [II-20], the 50% growth inhibitory concentration (GI50) was 38.3 µg/mL (≈ 124 µM).

The test system of a further data set is K562 cells. Briefly: Cell growth inhibition bioassay (sulforhodamine B). Particulars: Homo sapiens, K562; 48 h, SRB; read-out: GI50 in indicated cell line: K562. It is filed as cell-based, human. As for the experimental part:
as §1
Regarding `CC(C)c1ccc(/C=N\Nc2ncnc3sc4c(c23)CCCC4)cc1` [II-07], the GI50 worked out at 1.4 µg/mL (≈ 3.99 µM).

As for `CC(C)(C)c1ccc(/C=N\Nc2ncnc3sc4c(c23)CCCC4)cc1` [II-08], the GI50 stood at 2.3 µg/mL (≈ 6.31 µM).

Regarding `C(=N/Nc1ncnc2sc3c(c12)CCCC3)/c1ccncc1` [II-20], the 50% growth inhibitory concentration (GI50) is 33.8 µg/mL (≈ 109 µM).

The subject of another data set is H460 cells. Briefly: Cell growth inhibition bioassay (sulforhodamine B). It is filed as cell-based, human. Particulars: Homo sapiens, NCI-H460; 48 h, SRB; read-out: GI50 in indicated cell line: H460. The protocol:
as §1
For `CC(C)c1ccc(/C=N\Nc2ncnc3sc4c(c23)CCCC4)cc1` [II-07], the GI50 was found to be 2.1 µg/mL (≈ 5.99 µM).

With `CC(C)(C)c1ccc(/C=N\Nc2ncnc3sc4c(c23)CCCC4)cc1` [II-08], the GI50 was determined as 2.3 µg/mL (≈ 6.31 µM).

In the case of `C(=N/Nc1ncnc2sc3c(c12)CCCC3)/c1ccncc1` [II-20], the GI50 amounted to 52.4 µg/mL (≈ 169 µM).

The next data set deals with MCF-7 cells. Briefly: Cell growth inhibition bioassay (sulforhodamine B). It is filed as cell-based, human. Particulars: Homo sapiens, MCF7; 48 h, SRB; read-out: GI50 in indicated cell line: MCF-7. The protocol: as §1
For `CC(C)c1ccc(/C=N\Nc2ncnc3sc4c(c23)CCCC4)cc1` [II-07], the 50% growth inhibitory concentration (GI50) worked out at 1.8 µg/mL (≈ 5.14 µM).

As for `CC(C)(C)c1ccc(/C=N\Nc2ncnc3sc4c(c23)CCCC4)cc1` [II-08], the GI50 is 2.3 µg/mL (≈ 6.31 µM).

Turning to `C(=N/Nc1ncnc2sc3c(c12)CCCC3)/c1ccncc1` [II-20], the GI50 came to 26 µg/mL (≈ 84 µM).

In the next data set the test system is M-14 cells. Briefly: Cell growth inhibition bioassay (sulforhodamine B). Type of data set: cell-based, human. The following applies: Homo sapiens, M14; 48 h, SRB; read-out: GI50 in indicated cell line: M-14. As for the experimental part: as §1
As for `CC(C)c1ccc(/C=N\Nc2ncnc3sc4c(c23)CCCC4)cc1` [II-07], the GI50 turned out to be 6.2 µg/mL (≈ 17.7 µM).

As for `CC(C)(C)c1ccc(/C=N\Nc2ncnc3sc4c(c23)CCCC4)cc1` [II-08], the 50% growth inhibitory concentration (GI50) amounted to 11 µg/mL (≈ 30.2 µM).

Turning to `C(=N/Nc1ncnc2sc3c(c12)CCCC3)/c1ccncc1` [II-20], the GI50 is more than 62.5 µg/mL.

The next data set relates to HT-29 cells. Briefly: Cell growth inhibition bioassay (sulforhodamine B). It is filed as cell-based, human. The following applies: Homo sapiens, HT-29; 48 h, SRB; read-out: GI50 in indicated cell line: HT-29. The protocol:
as §1
As to `CC(C)c1ccc(/C=N\Nc2ncnc3sc4c(c23)CCCC4)cc1` [II-07], the GI50 came to 2.1 µg/mL (≈ 5.99 µM).

For `CC(C)(C)c1ccc(/C=N\Nc2ncnc3sc4c(c23)CCCC4)cc1` [II-08], the GI50 is 5.7 µg/mL (≈ 15.6 µM).

As for `C(=N/Nc1ncnc2sc3c(c12)CCCC3)/c1ccncc1` [II-20], the GI50 is 47.3 µg/mL (≈ 153 µM).

The subject of another data set is DU145 cells. Briefly: Cell growth inhibition bioassay (sulforhodamine B). Particulars: Homo sapiens, DU-145; 48 h, SRB; read-out: GI50 in indicated cell line: DU145. Type of data set: cell-based, human. As for the experimental part: as §1
On to `CC(C)c1ccc(/C=N\Nc2ncnc3sc4c(c23)CCCC4)cc1` [II-07], for which the GI50 is 3.8 µg/mL (≈ 10.8 µM).

`CC(C)(C)c1ccc(/C=N\Nc2ncnc3sc4c(c23)CCCC4)cc1` [II-08]: the GI50 worked out at 8 µg/mL (≈ 21.9 µM).

Turning to `C(=N/Nc1ncnc2sc3c(c12)CCCC3)/c1ccncc1` [II-20], the GI50 stood at 26 µg/mL (≈ 84 µM).

System in a further data set: not listed separately
Briefly: Toxicity to peritoneal macrophages (Trypan Blue count). It is filed as cell-based, BALB/C mouse. The following applies: BALB/C, mouse, Cytotoxicity Macrophages IC50. As for the experimental part:
Peritoneal macrophages were prepared as follows. Non-inflammatory macrophages (10^6) were collected from each BALB/C mouse. The cells adhered at 37° C. after 2 h under 5% CO2 in a CO2 incubator. The plates were then rinsed two to three times with 0.5 mL of RPMI+buffer MOPS without fetal calf serum to eliminate non-adhering cells. The supernatant on the plates was replaced by fresh medium (RPMI+glutamine+FCS+antibiotics), 0.5 mL of medium per well. To determine the toxicity of the compounds to macrophages, dilutions of compounds were added on a part of the macrophages prepared above. […] The medium was then removed and 1 μL of sterile Trypan Blue was added. Cover glasses N° 1 were left where cells were plated and then the number of macrophages in a microscope was determined with a haemocytometer. All experiments were performed in triplicate.
In turn, `CC(C)c1ccc(/C=N\Nc2ncnc3sc4c(c23)CCCC4)cc1` [II-07] gave an IC50 at 48 h of 3000 nM.

For `CC(C)(C)c1ccc(/C=N\Nc2ncnc3sc4c(c23)CCCC4)cc1` [II-08], the IC50 at 48 h came out at 2400 nM.

`C(=N/Nc1ncnc2sc3c(c12)CCCC3)/c1ccncc1` [II-20] registered an IC50 at 48 h of 47700 nM.

Another data set has as its system axenic amastigotes of L. amazonensis (strain MHOM/BR/76/LTB-012). Briefly: microbe, parasite or virus in culture. Particulars: Leishmania amazonensis, read-out: L. amazonensis IC50.
Take `CC(C)c1ccc(/C=N\Nc2ncnc3sc4c(c23)CCCC4)cc1` [II-07]: the IC50 was found to be 1300 nM.

As to `CC(C)(C)c1ccc(/C=N\Nc2ncnc3sc4c(c23)CCCC4)cc1` [II-08], the IC50 was determined as 600 nM.

As for `C(=N/Nc1ncnc2sc3c(c12)CCCC3)/c1ccncc1` [II-20], the IC50 is 72000 nM.

The next data set deals with 3T3 cells. Briefly: Cell growth inhibition bioassay (sulforhodamine B). The following applies: Mus musculus, NIH3T3; 48 h, SRB; read-out: GI50 in indicated cell line: 3T3. Type of data set: cell-based, mouse. The protocol:
as §1
On to `CC(C)c1ccc(/C=N\Nc2ncnc3sc4c(c23)CCCC4)cc1` [II-07], for which the GI50 amounted to 3.3 µg/mL (≈ 9.42 µM).

As to `CC(C)(C)c1ccc(/C=N\Nc2ncnc3sc4c(c23)CCCC4)cc1` [II-08], the GI50 is 8.4 µg/mL (≈ 23 µM).

`C(=N/Nc1ncnc2sc3c(c12)CCCC3)/c1ccncc1` [II-20]: the GI50 is 25.7 µg/mL (≈ 83.1 µM).

The next data set relates to Trypanosoma cruzi (Tulahuen C4). Briefly: In vitro anti-T. cruzi activity (β-galactosidase CPRG colorimetric assay in VERO monolayer). The following applies: IC50, VERO/IC50, T. cruzi; Lab B. It is filed as cell-based.
As for `CC(C)c1ccc(/C=N\Nc2ncnc3sc4c(c23)CCCC4)cc1` [II-07], the “Selectivity Index Lab B” value came out at 0.5.

With `CC(C)(C)c1ccc(/C=N\Nc2ncnc3sc4c(c23)CCCC4)cc1` [II-08], the “Selectivity Index Lab B” value is given as 1.2.

The same data set, now with this note: Trypanosoma cruzi, TULAHUEN, Vero, Lab A; read-out: T. cruzi IC50 Lab A.
For `CC(C)c1ccc(/C=N\Nc2ncnc3sc4c(c23)CCCC4)cc1` [II-07], the IC50 came out at 0.9 µg/mL (≈ 2.57 µM).

Turning to `CC(C)(C)c1ccc(/C=N\Nc2ncnc3sc4c(c23)CCCC4)cc1` [II-08], the IC50 was found to be 1.3 µg/mL (≈ 3.57 µM).

The same data set, now with this note: Trypanosoma cruzi, TULAHUEN, Vero, Lab B; read-out: T. cruzi IC50 Lab B.
`CC(C)c1ccc(/C=N\Nc2ncnc3sc4c(c23)CCCC4)cc1` [II-07]: the IC50 is 1.8 µg/mL (≈ 5.14 µM).

`CC(C)(C)c1ccc(/C=N\Nc2ncnc3sc4c(c23)CCCC4)cc1` [II-08]: the IC50 was 4.1 µg/mL (≈ 11.2 µM).

System in another data set: not listed separately
Briefly: Cytotoxicity on VERO cells (MTT), anti-T. cruzi study. Particulars: African green monkey, VERO cells, Cytotoxicity VERO Lab B, Lab B.
Regarding `CC(C)c1ccc(/C=N\Nc2ncnc3sc4c(c23)CCCC4)cc1` [II-07], the IC50 is 1 µg/mL (≈ 2.85 µM).

`CC(C)(C)c1ccc(/C=N\Nc2ncnc3sc4c(c23)CCCC4)cc1` [II-08] registered an IC50 of 5 µg/mL (≈ 13.7 µM).

In general, MIC refers to the least concentration at which growth counts as inhibited. Low readings indicate a more susceptible organism, high ones a less susceptible organism. As a reminder, the GI50 is the concentration that inhibits growth by half. As a reminder, the IC50 is the concentration that inhibits the measured activity by half.
